We go through five compounds from ChEMBL document CHEMBL1201862, “PubChem BioAssay data set” (2004).

Each structure is given as a SMILES string.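 How tested: cells in 96-well plates exposed to compound for 48 hours at five concentrations. GI50 marks 50% less growth.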 The source made the active and inactive calls. Rule as the data show it: active = GI50 up to about 1.1 µM and inactive = higher. A value given as a limit tells only on which side of the number the result lay.

Common to all, as to assay: inhibition of tumour cell growth, NCI panel, 48 h
Assay [1] has as its system HOP-62.
The subject of assay [2] is LOX IMVI.
The subject of assay [3] is COLO 205.
Assay [4] deals with SW-620.
Assay [5] concerns SF-295.
The test system of assay [6] is KM12.
Assay [7] concerns NCI-H460.
Assay [8] relates to SK-OV-3.
Assay [9] deals with HT-29.
Assay [10] has as its system HCT-15.
Assay [11] relates to K562.
The test system of assay [12] is M14.
In assay [13] the test system is A549.
The subject of assay [14] is HOP-92.
For assay [15], the system named is UACC-62.
The subject of assay [16] is SK-MEL-5.

For the compound `Cc1cnc2ccc(C)c([N+](=O)[O-])c2c1NCCCN(C)C`, the GI50 is > 100 µM (inactive) in assay [1]; > 100 µM (inactive) in [2]; 76.2 µM (inactive) in assay [3]; > 100 µM (inactive) in [4]; > 100 µM (inactive) in assay [5]; > 100 µM (inactive) in [6]. Besides, the GI50 in [7] was > 100 µM (inactive); in assay [8], > 100 µM (inactive); in assay [9] it was > 100 µM (inactive); in assay [10], greater than 100 µM; in assay [11], > 100 µM (inactive); in [12], > 100 µM (inactive). In assay [13], the GI50 is > 100 µM (inactive).
In the case of `COc1cc(C2=NN(C)C(c3ccc([N+](=O)[O-])o3)C2)cc(OC)c1OC` (centres undefined), the GI50 in assay [1] is > 100 µM (inactive); in [2], 69 µM (inactive); in [3], 36.9 µM (inactive); in assay [4] it was 11 µM (inactive); in assay [14], 45.5 µM (inactive); in assay [5], > 100 µM (inactive). The GI50 is > 100 µM (inactive) in assay [6]; 41.9 µM (inactive) in [7]; 83.2 µM (inactive) in [15]; > 100 µM (inactive) in assay [8]; 72.4 µM (inactive) in [9]; 18.2 µM in [10]. The GI50 is 52 µM (inactive) in assay [11], 53.8 µM (inactive) in [12], > 100 µM (inactive) in assay [16] and > 100 µM (inactive) in assay [13].
Turning to `CCc1cc(Cc2cc(CC)c(NC(=O)C(=O)Cc3ccccn3)c(CC)c2Cl)c(Cl)c(CC)c1NC(=O)C(=O)Cc1ccccn1`, the GI50 in assay [1] was > 100 µM (inactive); in [2] it was 41.8 µM (inactive); in [3] it was 64 µM (inactive); in assay [4], 15.7 µM (inactive); in assay [14] it was > 100 µM (inactive); in assay [5] it was > 100 µM (inactive). The GI50 in assay [6] is 78.3 µM (inactive); in assay [7], > 100 µM (inactive); in assay [15] it was > 100 µM (inactive); in assay [8] it was > 100 µM (inactive); in [9] it was 70 µM (inactive); in [10] it was 39.4 µM. The GI50 is > 100 µM (inactive) in assay [11], 75.2 µM (inactive) in assay [12], > 100 µM (inactive) in assay [16] and > 100 µM (inactive) in assay [13].
In the case of `NNC(=O)N/N=C1\CN(c2ccc(Cl)cc2Cl)C(=O)C(=O)C1c1nc2ccccc2o1` (centres undefined), the GI50 in assay [1], in assay [3], in assay [4], in [14], in assay [6] and in [7] was > 100 µM (inactive) each time. The GI50 in assay [15], in [8], in assay [9], in assay [11], in assay [12] and in assay [16] was > 100 µM (inactive) throughout. For the same compound, the GI50 in assay [13] was > 100 µM (inactive).
Regarding `CCOC(=O)C1C(=O)c2ccccc2CN1Cc1ccccc1` (centres undefined), the GI50 in assay [1], in assay [2], in [3], in assay [4], in assay [14] and in assay [5] was > 100 µM (inactive) throughout. The GI50 in assay [6] is > 100 µM (inactive); in assay [7], > 100 µM (inactive); in assay [15], > 100 µM (inactive); in [8], > 100 µM (inactive); in assay [9] it was > 100 µM (inactive); in [10], greater than 100 µM. The GI50 in [11], in assay [12], in assay [16] and in [13] was > 100 µM (inactive) in each case.
